Experimental data published in ChEMBL document CHEMBL3046393, “3D-QSAR studies of thiosemicarbazone and thiocarbamoylpyrazoline antiamebics” (Med Chem Res, 2013).

System: Entamoeba histolytica
Assay: Antiamoebic activity against trophozoite stage of Entamoeba histolytica HM-1:IMSS assessed as parasite growth inhibition after 72 hr by microdilution assay
Format: functional, organism-based

Which IC50 does the source give for `CCN(CC)C(=S)N1CCC(c2cccc(Br)c2)=N1` here?
The IC50 was 1.2 µM.

With `S=C(N1CCC(Cc2ccccc2)CC1)N1CCC(c2cccc(Br)c2)=N1` as the compound, how does the IC50 read?
The IC50 was 1.4 µM.

For `S=C(N1CCC(Cc2ccccc2)CC1)N1CCC(c2ccccc2)=N1`, which IC50 is on record?
Its IC50 is 2.3 µM.

Which IC50 does the source give for `S=C(N1CCN(c2ccccc2)CC1)N1CCC(c2cccc(Cl)c2)=N1` here?
The IC50 was 1.2 µM.

How did the IC50 turn out when `S=C(N1CCN(c2ccccc2)CC1)N1CCC(c2ccccc2)=N1` was run?
Its IC50 is 3.1 µM.

How did the IC50 turn out when `S=C(N1CCN(c2ccccc2)CC1)N1CCC(c2cccc(Br)c2)=N1` was run?
The IC50 was 1.6 µM.

`CC1CCN(C(=S)N2CCC(c3cccc(Cl)c3)=N2)CC1` was tested. Which IC50 did it give?
Its IC50 is 2.8 µM.

For `CC1CCN(C(=S)N2CCC(c3cccc(Br)c3)=N2)CC1`, which IC50 is on record?
Its IC50 is 3.6 µM.

Which IC50 does the source give for `CC1CCN(C(=S)N2CCC(c3ccccc3)=N2)CC1` here?
Its IC50 is 4.8 µM.

How did the IC50 turn out when `S=C(NCc1ccccc1Cl)N1CCC(c2cccc(Cl)c2)=N1` was run?
The IC50 was 2.2 µM.

How did the IC50 turn out when `S=C(NCc1ccccc1Cl)N1CCC(c2cccc(Br)c2)=N1` was run?
The IC50 was 2.6 µM.

`S=C(NCc1ccccc1Cl)N1CCC(c2ccccc2)=N1` was tested. Which IC50 did it give?
Its IC50 is 7.6 µM.

Which IC50 does the source give for `S=C(NC1CCCCCCC1)N1CCC(c2cccc(Br)c2)=N1` here?
Its IC50 is 2 µM.

`S=C(NC1CCCCCCC1)N1CCC(c2cccc(Cl)c2)=N1` was tested. Which IC50 did it give?
Its IC50 is 1.5 µM.

`S=C(NC1CCCC1)N1CCC(c2cccc(Cl)c2)=N1` was tested. Which IC50 did it give?
The IC50 was 3.7 µM.

How did the IC50 turn out when `S=C(NC1CCCCC1)N1CCC(c2ccccc2)=N1` was run?
The IC50 was 5.2 µM.

Which IC50 does the source give for `S=C(NC1CCCCC1)N1CCC(c2cccc(Br)c2)=N1` here?
The IC50 was 3.1 µM.

How did the IC50 turn out when `S=C(NC1CCCCC1)N1CCC(c2cccc(Cl)c2)=N1` was run?
The IC50 was 2.4 µM.

Which IC50 does the source give for `S=C(NC1CCCCCCC1)N1CCC(c2ccccc2)=N1` here?
The IC50 was 2.5 µM.

Which IC50 does the source give for `S=C(NC1CCCC1)N1CCC(c2cccc(Br)c2)=N1` here?
The IC50 was 4.2 µM.

With `CCCN(CCC)C(=S)N1CCC(c2cccc(Cl)c2)=N1` as the compound, how does the IC50 read?
The IC50 was 0.6 µM.

How did the IC50 turn out when `S=C(NC1CCCC1)N1CCC(c2ccccc2)=N1` was run?
Its IC50 is 6.5 µM.

`CCCN(CCC)C(=S)N1CCC(c2cccc(Br)c2)=N1` was tested. Which IC50 did it give?
The IC50 was 0.8 µM.

`CCCN(CCC)C(=S)N1CCC(c2ccccc2)=N1` was tested. Which IC50 did it give?
The IC50 was 2 µM.

With `CCN(CC)C(=S)N1CCC(c2cccc(Cl)c2)=N1` as the compound, how does the IC50 read?
Its IC50 is 1 µM.

With `CCN(CC)C(=S)N1CCC(c2ccccc2)=N1` as the compound, how does the IC50 read?
The IC50 was 4.2 µM.

For `CCCCN(C)C(=S)N1CCC(c2cccc(Cl)c2)=N1`, which IC50 is on record?
Its IC50 is 0.7 µM.

Which IC50 does the source give for `CCCCN(C)C(=S)N1CCC(c2ccccc2)=N1` here?
Its IC50 is 5.7 µM.

How did the IC50 turn out when `CCCCN(C)C(=S)N1CCC(c2cccc(Br)c2)=N1` was run?
Its IC50 is 2.4 µM.

`CC(C)CNC(=S)N1CCC(c2cccc(Cl)c2)=N1` was tested. Which IC50 did it give?
Its IC50 is 5 µM.

For `CC(C)CNC(=S)N1CCC(c2cccc(Br)c2)=N1`, which IC50 is on record?
Its IC50 is 6.1 µM.

How did the IC50 turn out when `CCCCNC(=S)N1CCC(c2cccc(Cl)c2)=N1` was run?
The IC50 was 12.3 µM.

For `CC(C)CNC(=S)N1CCC(c2ccccc2)=N1`, which IC50 is on record?
Its IC50 is 11.2 µM.

With `CCCCNC(=S)N1CCC(c2cccc(Br)c2)=N1` as the compound, how does the IC50 read?
Its IC50 is 14.2 µM.

Which IC50 does the source give for `CCCCNC(=S)N1CCC(c2ccccc2)=N1` here?
Its IC50 is 23.3 µM.

With `CC(C)NC(=S)N1CCC(c2cccc(Cl)c2)=N1` as the compound, how does the IC50 read?
The IC50 was 12.2 µM.

Which IC50 does the source give for `CCCNC(=S)N1CCC(c2cccc(Br)c2)=N1` here?
Its IC50 is 8.5 µM.

Which IC50 does the source give for `CC(C)NC(=S)N1CCC(c2ccccc2)=N1` here?
Its IC50 is 23 µM.

How did the IC50 turn out when `CCCNC(=S)N1CCC(c2ccccc2)=N1` was run?
The IC50 was 14 µM.

`CC(C)/N=C(\S)N1CCC(c2cccc(Br)c2)=N1` was tested. Which IC50 did it give?
Its IC50 is 15.2 µM.
